Publication PMC8247773, “Benzohydrazide and Phenylacetamide Scaffolds: New Putative ParE Inhibitors” (Frontiers in Bioengineering and Biotechnology, 2021)
≈ marks a conversion by molar mass, not a printed value.

What was measured:
[1] = test system: Escherichia coli (NCIM 2567); set-up: method as in Yele et al., 2020, 2021; conditions: ref Yele et al., 2020, 2021; cited from earlier work
[2] = test system: Escherichia coli (NCIM 2065); assay: Antibacterial susceptibility test, microbroth dilution MIC; assay type: cell-based; conditions: E. Coli (NCIM 2065); mean ± SD
MRSA (NCIM 5021) [3] = assay: Minimum bactericidal concentration (MBC); assay type: cell-based, methicillin-resistant Staphylococcus aureus
Procedure: (§1) MBC can be defined as the minimum concentration of a compound required to kill the bacteria over a fixed period under precise conditions. […] Colonies were counted, and colony forming unit (CFU) per milliliter was calculated.

MRSA (ATCC43300) [4] = assay: Minimum bactericidal concentration (MBC); assay type: cell-based, methicillin-resistant Staphylococcus aureus
Procedure: as §1

[5] = test system: Mycobacterium tuberculosis (NCIM 2984); set-up: method as in Yele et al., 2020, 2021; conditions: ref Yele et al., 2020, 2021; cited from earlier work
[6] = test system: Bacillus subtilis (NCIM 2545); set-up: method as in Yele et al., 2020, 2021; conditions: ref Yele et al., 2020, 2021; cited from earlier work
[7] = test system: Staphylococcus aureus (NCIM 5022); set-up: method as in Yele et al., 2020, 2021; conditions: ref Yele et al., 2020, 2021; cited from earlier work
[8] = test system: Staphylococcus epidermis (NCIM 2493); set-up: method as in Yele et al., 2020, 2021; conditions: ref Yele et al., 2020, 2021; cited from earlier work
[9] = test system: Escherichia coli (NCIM 2065); assay: Minimum bactericidal concentration (MBC); assay type: cell-based; conditions: E. Coli (NCIM 2065); for MBC/MIC: ratio ≤2 bactericidal, ≥4 tolerance
Procedure: as §1

[10] = test system: Klebsiella pneumonia (NCIM 2706); set-up: method as in Yele et al., 2020, 2021; conditions: ref Yele et al., 2020, 2021; cited from earlier work
MRSA (ATCC43300) [11] = assay: Antibacterial susceptibility test, microbroth dilution MIC; assay type: cell-based, methicillin-resistant Staphylococcus aureus; conditions: mean ± SD
MRSA (NCIM 5021) [12] = assay: as above; assay type: cell-based, methicillin-resistant Staphylococcus aureus; conditions: mean ± SD
[13] = test system: Pseudomonas aeruginosa (NCIM 2036); set-up: method as in Yele et al., 2020, 2021; conditions: ref Yele et al., 2020, 2021; cited from earlier work
E. coli ParE enzyme = target: T1, E. coli ParE enzyme (Escherichia coli, UniProt P20083); assay: E. coli ParE ATPase enzyme inhibition assay (ProFoldin kit, malachite green); assay type: biochemical; conditions: ATPase activity, mean ± SD (n = 3)
T1 construct: purchased ProFoldin, Hudson, United States
Procedure: The assay was performed as per the standard protocol provided by the ProFoldin. […] ParE hydrolyzes ATP as the source of molecular energy to perform decatenation reactions. Fluoroquinolones and aminocoumarins usually block ATPase activity to hinder the biological activities of topoisomerase II. Thus, the topoisomerase ATPase assay can be used for high-throughput screening of topoisomerase inhibitors. The ATPase activity of the E. coli ParE enzyme was based on the detection of inorganic phosphate produced by the hydrolysis of ATP in the presence of DNA. The phosphate is detected using a microplate reader at an absorbance wavelength of 650 nm. The selected compounds were tested for the inhibition of ATPase activity of ParE enzyme. […] The reaction mixture was incubated for 1 h at 37°C and then quenched with 45 μL of Dye. Incubate for 5 min, and the absorbance was measured at 650 nm. The IC50 values were determined from the absorbance readings using no enzyme and no compound controls. They were calculated using the non-linear regression curve fit method.

T1 sequence (P20083 whole entry): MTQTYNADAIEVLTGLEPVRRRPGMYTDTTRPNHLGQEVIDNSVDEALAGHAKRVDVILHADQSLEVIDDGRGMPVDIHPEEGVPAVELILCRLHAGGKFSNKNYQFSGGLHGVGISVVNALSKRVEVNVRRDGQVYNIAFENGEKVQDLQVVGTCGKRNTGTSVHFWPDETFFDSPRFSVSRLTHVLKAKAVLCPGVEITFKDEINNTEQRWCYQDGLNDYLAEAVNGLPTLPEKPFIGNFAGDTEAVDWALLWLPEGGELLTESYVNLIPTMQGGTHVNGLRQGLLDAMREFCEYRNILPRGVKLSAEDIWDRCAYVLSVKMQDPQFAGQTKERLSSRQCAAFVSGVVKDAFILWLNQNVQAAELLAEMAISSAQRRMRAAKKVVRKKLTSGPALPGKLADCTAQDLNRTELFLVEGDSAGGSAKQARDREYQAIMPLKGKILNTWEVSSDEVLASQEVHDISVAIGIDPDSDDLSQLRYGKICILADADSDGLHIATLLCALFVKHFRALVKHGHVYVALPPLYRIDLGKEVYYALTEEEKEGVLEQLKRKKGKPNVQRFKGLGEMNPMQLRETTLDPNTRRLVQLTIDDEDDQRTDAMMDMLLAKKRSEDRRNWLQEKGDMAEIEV
T1 sequence (P0AFI2 whole entry, further chain): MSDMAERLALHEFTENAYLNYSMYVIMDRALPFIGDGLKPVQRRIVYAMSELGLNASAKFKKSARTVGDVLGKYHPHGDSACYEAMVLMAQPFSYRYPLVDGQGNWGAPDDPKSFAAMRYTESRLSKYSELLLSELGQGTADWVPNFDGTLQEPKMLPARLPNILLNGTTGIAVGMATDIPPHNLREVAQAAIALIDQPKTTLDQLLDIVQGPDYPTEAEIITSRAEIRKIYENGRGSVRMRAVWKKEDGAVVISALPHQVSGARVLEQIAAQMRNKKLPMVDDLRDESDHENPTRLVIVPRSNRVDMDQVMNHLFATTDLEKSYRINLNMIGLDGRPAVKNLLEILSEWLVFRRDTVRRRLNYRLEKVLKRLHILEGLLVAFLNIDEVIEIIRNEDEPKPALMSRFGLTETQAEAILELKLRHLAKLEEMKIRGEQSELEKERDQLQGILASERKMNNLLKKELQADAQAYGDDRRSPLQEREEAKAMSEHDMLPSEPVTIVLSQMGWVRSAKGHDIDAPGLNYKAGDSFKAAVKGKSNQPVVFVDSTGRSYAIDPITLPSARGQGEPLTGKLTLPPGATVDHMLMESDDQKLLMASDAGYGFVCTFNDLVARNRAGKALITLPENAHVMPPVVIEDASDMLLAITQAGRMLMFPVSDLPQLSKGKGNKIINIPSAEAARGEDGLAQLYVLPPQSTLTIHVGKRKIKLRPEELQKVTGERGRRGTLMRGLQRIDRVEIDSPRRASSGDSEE

| SMILES | Minimum inhibitory concentration (MIC) E. c [1] | Minimum inhibitory concentration [2] | MBC (MRSA (NCIM 5021) [3]) | MBC/MIC (MRSA (NCIM 5021) [3]) | MBC (MRSA (ATCC43300) [4]) | MBC/MIC (MRSA (ATCC43300) [4]) | Minimum inhibitory concentration (MIC) M. t [5] | Minimum inhibitory concentration (MIC) B. s [6] | Minimum inhibitory concentration (MIC) S. a [7] | Minimum inhibitory concentration (MIC) S. e [8] | MBC [9] | MBC/MIC [9] | Minimum inhibitory concentration (MIC) K. p [10] | Minimum inhibitory concentration (MRSA (ATCC43300) [11]) | Minimum inhibitory concentration (MRSA (NCIM 5021) [12]) | Minimum inhibitory concentration (MIC) P. a [13] | IC50 against E. coli ParE enzyme (E. coli ParE enzyme) |
| --- | --- | --- | --- | --- | --- | --- | --- | --- | --- | --- | --- | --- | --- | --- | --- | --- | --- |
| O=C(COc1ccccc1NC(=O)CCl)Nc1cccc(Cl)c1 [Compound 10] | 7.07 | 0.83 ± 0.05 µg/mL (≈ 2.35 µM) | 0.82 ± 0.03 µg/mL (≈ 2.32 µM) | 1 | 0.88 ± 0.10 µg/mL (≈ 2.49 µM) | 1 | 5.26 | 1.97 | 0.92 | 1.95 | 0.83 ± 0.05 µg/mL (≈ 2.35 µM) | 1 | 14.70 | 0.88 ± 0.10 µg/mL (≈ 2.49 µM) | 0.82 ± 0.03 µg/mL (≈ 2.32 µM) | 10.81 | 1.84 µg/mL (≈ 5.21 µM) |
| Cc1ccc(S(=O)(=O)NC(=O)COc2ccccc2NC(=O)CCl)cc1 [Compound 18] | 5.20 | 1.42 ± 0.23 µg/mL (≈ 3.58 µM) | 1.81 ± 0.40 µg/mL (≈ 4.56 µM) | 1 | 3.74 ± 0.16 µg/mL (≈ 9.42 µM) | 2 | 4.62 | 3.52 | 2.48 | 3.96 | 1.42 ± 0.23 µg/mL (≈ 3.58 µM) | 1 | 5.25 | 1.74 ± 0.21 µg/mL (≈ 4.38 µM) | 1.81 ± 0.40 µg/mL (≈ 4.56 µM) | 4.67 | 1.81 µg/mL (≈ 4.56 µM) |
| O=C(COc1ccccc1NC(=O)CCl)NNC(=O)c1ccccc1Cl [Compound 15] | 1.63 | 0.98 ± 0.07 µg/mL (≈ 2.47 µM) | – | – | 3.18 ± 0.32 µg/mL (≈ 8.03 µM) | 2 | 3.52 | 0.67 | 0.62 | 0.64 | – | – | 1.89 | 1.51 ± 0.49 µg/mL (≈ 3.81 µM) | 5.60 ± 0.36 µg/mL (≈ 14.1 µM) | 1.45 | 1.33 µg/mL (≈ 3.36 µM) |
| O=C(COc1ccccc1NC(=O)CCl)Nc1cc(Cl)c(Cl)cc1Cl [Compound 11] | 7.98 | 0.97 ± 0.01 µg/mL (≈ 2.3 µM) | 7.18 ± 0.15 µg/mL (≈ 17 µM) | 4 | 0.84 ± 0.05 µg/mL (≈ 1.99 µM) | 1 | 4.71 | 0.94 | 0.68 | 1.33 | 0.97 ± 0.01 µg/mL (≈ 2.3 µM) | 1 | 4.43 | 0.84 ± 0.05 µg/mL (≈ 1.99 µM) | 1.79 ± 0.16 µg/mL (≈ 4.24 µM) | 9.33 | 1.81 µg/mL (≈ 4.29 µM) |
| O=C(COc1ccc2ccccc2c1)Nc1ccc(Cl)cc1 [Compound 29] | 0.77 | 0.81 ± 0.14 µg/mL (≈ 2.6 µM) | 0.75 ± 0.19 µg/mL (≈ 2.41 µM) | 1 | 0.91 ± 0.11 µg/mL (≈ 2.92 µM) | 1 | 0.77 | 4.69 | 0.90 | 4.70 | 0.81 ± 0.14 µg/mL (≈ 2.6 µM) | 1 | 0.88 | 0.91 ± 0.11 µg/mL (≈ 2.92 µM) | 0.75 ± 0.19 µg/mL (≈ 2.41 µM) | 5.48 | 2.77 µg/mL (≈ 8.88 µM) |
